pIC50: −log10 of the molar value. Calls of active or inactive are those of the source. The rule behind the calls is not given here.
Key:
[1] = target: Voltage-gated inwardly rectifying potassium channel KCNH2 (Homo sapiens, UniProt Q12809); assay: Inhibition of human ERG; conditions: for pIC50: read-out: IC50
[2] = Lipophilicity, log D of the compound; format: physicochemical; conditions: octanol/water
[3] = target: Sodium-dependent noradrenaline transporter (Homo sapiens, UniProt P23975); assay: Inhibition of NET; conditions: for pIC50: read-out: IC50
Cytochrome P450 2D6 = Cytochrome P450 2D6 (Homo sapiens, UniProt P10635); assay: Inhibition of CYP2D6; format: ADME; conditions: for pIC50: read-out: IC50
Homo sapiens = organism: Homo sapiens; assay: Selectivity ratio of IC50 for human recombinant iNOS to IC50 for human recombinant eNOS
[4] = target: T1, Nitric oxide synthase, inducible (Homo sapiens, UniProt P35228); assay: Inhibition of human recombinant iNOS
[5] = target: T1, Nitric oxide synthase, inducible; assay: Inhibition of iNOS in intact human DLD1 cells assessed as nitric oxide production; format: cell-based, DLD-1; conditions: for pIC50: read-out: IC50; for IC50: dld-1
[6] = target: Sodium-dependent serotonin transporter (Homo sapiens, UniProt P31645); assay: Inhibition of serotonin transporter; conditions: for pIC50: read-out: IC50
[7] = Volume of distribution at steady state in iv dosed rat; format: ADME, organism-based; conditions: in vivo, read-out: Vdss
[8] = Oral bioavailability in rat; format: ADME, organism-based; conditions: in vivo
Hepatocyte [9] = assay: Metabolic stability in rat hepatocytes assessed as per 10^6 cells; format: ADME, cell-based
[10] = Metabolic stability in human microsomes assessed as per mg of tissue; format: ADME, Microsome
[11] = Half life in iv dosed rat; format: ADME, organism-based; conditions: in vivo
[12] = Clearance in iv dosed rat; format: ADME, organism-based; conditions: in vivo
Hepatocyte [13] = assay: Metabolic stability in human hepatocytes assessed as per 10^6 cells; format: ADME, cell-based
Rattus norvegicus [14] = assay: Analgesic activity in Dark Agouti rat collagen-induced arthritis model at 75 umol/kg bid; format: functional, organism-based
Rattus norvegicus [15] = assay: Analgesic activity in Dark Agouti rat collagen-induced arthritis model assessed as reduction in erosion scores at 75 umol/kg bid by histological analysis; format: functional, organism-based
Rattus norvegicus [16] = assay: Analgesic activity in Dark Agouti rat collagen-induced arthritis model assessed as reduction in inflammation at 75 umol/kg bid by histological analysis; format: functional, organism-based

Voltage-gated inwardly rectifying potassium channel KCNH2, sequence (Q12809 whole entry): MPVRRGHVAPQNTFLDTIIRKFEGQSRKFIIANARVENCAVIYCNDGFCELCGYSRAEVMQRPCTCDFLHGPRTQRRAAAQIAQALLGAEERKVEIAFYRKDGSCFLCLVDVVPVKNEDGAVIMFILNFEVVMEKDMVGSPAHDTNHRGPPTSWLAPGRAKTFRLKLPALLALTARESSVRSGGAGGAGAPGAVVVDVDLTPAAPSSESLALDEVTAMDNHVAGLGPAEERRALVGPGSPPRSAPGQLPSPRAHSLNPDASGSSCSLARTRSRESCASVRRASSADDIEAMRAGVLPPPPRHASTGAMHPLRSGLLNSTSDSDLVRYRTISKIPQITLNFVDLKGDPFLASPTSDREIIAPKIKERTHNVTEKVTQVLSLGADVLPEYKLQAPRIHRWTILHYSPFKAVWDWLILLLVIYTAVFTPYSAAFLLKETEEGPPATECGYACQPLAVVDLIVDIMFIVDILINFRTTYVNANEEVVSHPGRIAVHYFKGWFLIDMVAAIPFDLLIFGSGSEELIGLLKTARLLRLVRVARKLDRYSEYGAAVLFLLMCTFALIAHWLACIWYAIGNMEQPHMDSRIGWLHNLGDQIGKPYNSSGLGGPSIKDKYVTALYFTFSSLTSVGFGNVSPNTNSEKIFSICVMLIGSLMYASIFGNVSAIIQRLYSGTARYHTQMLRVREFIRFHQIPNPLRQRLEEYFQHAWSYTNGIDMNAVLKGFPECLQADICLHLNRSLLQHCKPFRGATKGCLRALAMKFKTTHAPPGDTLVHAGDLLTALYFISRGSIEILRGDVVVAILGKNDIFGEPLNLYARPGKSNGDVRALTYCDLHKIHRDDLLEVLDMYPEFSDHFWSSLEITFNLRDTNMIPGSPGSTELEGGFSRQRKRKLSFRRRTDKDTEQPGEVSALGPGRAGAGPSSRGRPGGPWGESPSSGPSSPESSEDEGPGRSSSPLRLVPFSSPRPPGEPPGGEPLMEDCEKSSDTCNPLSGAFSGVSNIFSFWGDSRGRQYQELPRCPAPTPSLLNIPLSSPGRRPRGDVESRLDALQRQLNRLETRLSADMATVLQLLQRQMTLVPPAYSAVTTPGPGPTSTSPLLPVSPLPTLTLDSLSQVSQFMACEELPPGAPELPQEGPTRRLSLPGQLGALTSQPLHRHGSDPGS
Sodium-dependent serotonin transporter, sequence (P31645 whole entry): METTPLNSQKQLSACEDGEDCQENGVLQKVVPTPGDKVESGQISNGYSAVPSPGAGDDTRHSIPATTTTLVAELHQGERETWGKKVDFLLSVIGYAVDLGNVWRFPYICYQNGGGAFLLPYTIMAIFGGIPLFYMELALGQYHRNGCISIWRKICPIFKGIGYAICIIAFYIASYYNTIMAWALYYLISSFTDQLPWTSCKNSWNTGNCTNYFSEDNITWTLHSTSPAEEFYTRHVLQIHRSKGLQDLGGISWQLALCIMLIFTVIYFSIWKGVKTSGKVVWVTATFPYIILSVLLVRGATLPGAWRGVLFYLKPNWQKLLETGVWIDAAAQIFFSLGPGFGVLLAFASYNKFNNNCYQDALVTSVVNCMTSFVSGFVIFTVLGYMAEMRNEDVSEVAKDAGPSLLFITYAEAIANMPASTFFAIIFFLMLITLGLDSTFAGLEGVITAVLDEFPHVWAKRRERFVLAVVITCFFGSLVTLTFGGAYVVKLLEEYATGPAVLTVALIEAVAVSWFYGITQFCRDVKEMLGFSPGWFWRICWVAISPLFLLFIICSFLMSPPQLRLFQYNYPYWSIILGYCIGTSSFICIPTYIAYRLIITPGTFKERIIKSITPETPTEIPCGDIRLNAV
Cytochrome P450 2D6, sequence (P10635 whole entry): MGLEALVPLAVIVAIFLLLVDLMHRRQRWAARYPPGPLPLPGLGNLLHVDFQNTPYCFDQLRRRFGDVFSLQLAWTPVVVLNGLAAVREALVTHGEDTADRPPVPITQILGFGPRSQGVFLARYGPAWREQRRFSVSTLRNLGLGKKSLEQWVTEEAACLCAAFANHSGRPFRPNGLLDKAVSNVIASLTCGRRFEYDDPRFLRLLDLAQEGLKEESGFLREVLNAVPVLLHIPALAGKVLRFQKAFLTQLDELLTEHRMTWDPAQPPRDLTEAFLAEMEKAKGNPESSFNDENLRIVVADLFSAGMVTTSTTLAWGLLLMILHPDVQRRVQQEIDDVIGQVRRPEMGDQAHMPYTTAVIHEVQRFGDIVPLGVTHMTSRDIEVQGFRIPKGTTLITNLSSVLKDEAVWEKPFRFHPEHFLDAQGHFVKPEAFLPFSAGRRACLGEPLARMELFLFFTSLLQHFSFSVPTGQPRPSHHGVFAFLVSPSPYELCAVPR
T1 sequence (P35228 whole entry): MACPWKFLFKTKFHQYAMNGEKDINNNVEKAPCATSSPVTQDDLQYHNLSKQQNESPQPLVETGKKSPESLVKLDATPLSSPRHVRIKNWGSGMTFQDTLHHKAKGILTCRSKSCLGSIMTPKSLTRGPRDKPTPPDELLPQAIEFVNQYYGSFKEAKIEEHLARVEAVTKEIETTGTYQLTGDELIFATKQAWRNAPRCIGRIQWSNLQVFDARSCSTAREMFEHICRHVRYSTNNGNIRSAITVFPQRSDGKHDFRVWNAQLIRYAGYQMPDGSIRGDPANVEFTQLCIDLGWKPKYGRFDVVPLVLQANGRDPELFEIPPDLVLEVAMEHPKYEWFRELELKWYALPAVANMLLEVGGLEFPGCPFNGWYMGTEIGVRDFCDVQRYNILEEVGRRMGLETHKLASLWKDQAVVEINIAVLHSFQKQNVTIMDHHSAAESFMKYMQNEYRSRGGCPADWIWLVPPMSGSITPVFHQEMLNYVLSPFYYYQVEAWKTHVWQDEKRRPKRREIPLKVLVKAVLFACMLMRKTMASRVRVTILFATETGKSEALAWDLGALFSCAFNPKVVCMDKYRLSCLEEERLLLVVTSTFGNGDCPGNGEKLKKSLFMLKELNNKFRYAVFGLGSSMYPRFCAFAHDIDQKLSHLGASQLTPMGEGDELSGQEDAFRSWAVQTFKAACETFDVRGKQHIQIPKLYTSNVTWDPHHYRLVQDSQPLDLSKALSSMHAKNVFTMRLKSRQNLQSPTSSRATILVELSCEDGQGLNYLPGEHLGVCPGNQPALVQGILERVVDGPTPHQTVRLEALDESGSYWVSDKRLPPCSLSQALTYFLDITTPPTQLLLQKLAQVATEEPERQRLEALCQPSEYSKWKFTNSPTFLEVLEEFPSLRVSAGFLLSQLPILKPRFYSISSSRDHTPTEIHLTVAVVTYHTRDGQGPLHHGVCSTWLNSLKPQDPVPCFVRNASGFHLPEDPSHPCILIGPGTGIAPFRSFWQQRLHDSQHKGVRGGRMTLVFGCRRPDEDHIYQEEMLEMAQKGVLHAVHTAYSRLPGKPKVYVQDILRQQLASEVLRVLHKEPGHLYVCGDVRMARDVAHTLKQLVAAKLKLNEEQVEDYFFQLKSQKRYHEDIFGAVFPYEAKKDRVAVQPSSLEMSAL
Sodium-dependent noradrenaline transporter, sequence (P23975 whole entry): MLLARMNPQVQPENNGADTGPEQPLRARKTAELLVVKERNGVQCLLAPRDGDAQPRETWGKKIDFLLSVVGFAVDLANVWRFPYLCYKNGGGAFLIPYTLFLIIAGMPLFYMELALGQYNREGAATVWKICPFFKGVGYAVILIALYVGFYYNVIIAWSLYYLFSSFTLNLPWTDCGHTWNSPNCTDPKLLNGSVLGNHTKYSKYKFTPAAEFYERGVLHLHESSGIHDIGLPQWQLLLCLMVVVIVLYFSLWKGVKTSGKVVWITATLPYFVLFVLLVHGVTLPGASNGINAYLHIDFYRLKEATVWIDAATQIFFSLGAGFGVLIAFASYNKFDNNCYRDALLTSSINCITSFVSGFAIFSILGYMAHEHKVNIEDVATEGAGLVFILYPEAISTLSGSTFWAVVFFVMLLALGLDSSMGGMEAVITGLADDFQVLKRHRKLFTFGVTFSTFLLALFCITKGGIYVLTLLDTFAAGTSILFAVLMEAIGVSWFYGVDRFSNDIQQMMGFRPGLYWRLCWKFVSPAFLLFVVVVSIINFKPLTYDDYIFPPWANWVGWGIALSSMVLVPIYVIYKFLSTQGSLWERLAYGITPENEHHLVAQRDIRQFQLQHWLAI

Row | Structure (SMILES) | logD [2] | pIC50 [3] | pIC50 (Cytochrome P450 2D6) | Ratio IC50 (Homo sapiens) | pIC50 [4] | pIC50 [5] | pIC50 [6] | IC50 [1] | also measured
1 | CCC(CCNC)Oc1cc(Cl)ccc1C#N.Cl (racemic) | 0.4 | 5.15 | 6.40 | 170 | 7.29 | 5.44 | 4.36 | Not Active | 
2 | CNCC[C@@H](Oc1cc(OC)ccc1C#N)c1ccccc1.O=C(O)C(=O)O | 0.9 | 4.92 | 6.52 |  | 6.96 | 5.02 | 5.24 | Not Active | 
3 | Cc1ccnc(NCc2ccccc2)c1 |  |  |  | 12 | 6.10 |  |  |  | 
4 | CNCC[C@@H](Oc1cc(C(F)(F)F)ccc1C#N)c1ccccc1.Cl | 1.3 | 4.55 | 5.80 | 1400 | 7.15 | 5.57 | 5.00 | Not Active | 
5 | NCC(Oc1cc(Cl)ccc1Cl)c1ccccc1 (stereo not drawn) |  |  |  | > 53 | 5.72 |  |  | Not Active | IC50 [3]: Not Active; IC50 (Cytochrome P450 2D6): Not Active; IC50 [5]: Not Active; IC50 [6]: Not Active
6 | CNCC[C@@H](Oc1cc(Cl)ccc1Cl)c1ccccc1.O=C(O)/C=C/C(=O)O |  |  |  | > 4500 | 7.66 | 5.06 |  | Not Active | IC50 (Cytochrome P450 2D6): Not Active
7 | CNCC[C@@H](Oc1cc(Cl)ccc1C#N)c1ccccc1.Cl | 1.7 | 6.30 | 6.00 |  | 8.05 | 6.15 | 5.35 |  | Stability (Hepatocyte [9]): 54 µL/min; Vd [7]: 6.6 L/kg; Stability [10]: 4 µL/min; half-life [11]: 1.3 h; clearance [12]: 94 mL/min/kg; Stability (Hepatocyte [13]): 1.4 µL/min

More lines, main results first:

Row | logD [2] | pIC50 [3] | pIC50 (Cytochrome P450 2D6) | Ratio IC50 (Homo sapiens) | pIC50 [4] | pIC50 [5] | pIC50 [6] | Structure (SMILES) | IC50 [1] | also measured
8 | -0.5 | < 4.00 | < 4.85 |  | 8.27 | 6.14 | 4.15 | N#Cc1ccc(C(F)(F)F)nc1O[C@H](CCN)c1ccno1.O=C(O)C(=O)O |  | pIC50 [1]: < 5.00; Vd [7]: 3.4 L/kg; bioavailability [8]: 49%
9 | 0.79 |  |  |  |  |  |  | N#Cc1ccc(C(=O)N2CCC3(CC2)N=C(N)c2c(F)ccc(F)c2N3)cn1 |  | pIC50 [1]: 7.00; Stability (Hepatocyte [9]): 5 µL/min; IC50 [3]: Not Active; Vd [7]: 4.5 L/kg; Stability [10]: Unstable; half-life [11]: 1.1 h; IC50 (Cytochrome P450 2D6): Not Active; clearance [12]: 57 mL/min/kg; Stability (Hepatocyte [13]): < 3 µL/min; bioavailability [8]: 75%; IC50 [6]: Not Active
10 |  | 4.77 | 5.39 |  | 8.40 | […] | […] | N#Cc1ccc(Cl)cc1S[C@H](CCN)c1ccccc1.O=C(O)/C=C/C(=O)O | Not Active | 
11 | 0.7 | 5.13 | 5.30 | > 10000 | 8.40 | 6.22 | 5.59 | Cc1ccc(C#N)c(S[C@H](CCN)c2ccccc2)n1.O=C(O)/C=C/C(=O)O | Not Active | 
12 | 0.8 | 4.82 | 6.40 | > 10000 | 8.40 | 6.05 | 5.68 | N#Cc1ccc(Cl)cc1O[C@H](CCN)c1ccccc1.O=C(O)C(=O)O | Not Active | 
13 | 0.9 |  |  | 100 | 6.02 |  |  | N#Cc1cc(Cl)ccc1O[C@H](CCN)c1ccccc1.O=C(O)/C=C/C(=O)O | Not Active | IC50 [3]: Not Active; IC50 (Cytochrome P450 2D6): Not Active; IC50 [5]: Not Active; IC50 [6]: Not Active
14 | 0.8 | 4.80 | 6.47 | > 10000 | 8.22 | 6.15 | 5.36 | N#Cc1cc(F)c(Cl)cc1O[C@H](CCN)c1ccccc1.O=C(O)C(=O)O |  | pIC50 [1]: < 5.00; Stability (Hepatocyte [9]): 8.9 µL/min; Activity (Rattus norvegicus [14]): Active; Activity (Rattus norvegicus [15]): Active; Vd [7]: 13 L/kg; Activity (Rattus norvegicus [16]): Active; Stability [10]: 6 µL/min; half-life [11]: 4.3 h; clearance [12]: 49 mL/min/kg; Stability (Hepatocyte [13]): < 1 µL/min; bioavailability [8]: 57%

— ChEMBL document CHEMBL1759901 (Bioorg Med Chem Lett, 2011)
